Assay results reported in ChEMBL document CHEMBL1201862, “PubChem BioAssay data set” (2004).
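Following 48 hours of exposure in 96-well plates, responses at five concentrations were used to interpolate endpoints linearly. GI50 = concentration required for 50% inhibition of growth.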 Activity calls are given as the source filed them. Rule as the data show it: active = GI50 up to about 1.1 µM and inactive = higher.

Key:
Assay in all cases: NCI-60 cell line screen, 48 h
NCI-H23 = tested on: NCI-H23
UACC-62 = tested on: UACC-62
CCRF-CEM = tested on: CCRF-CEM
RPMI-8226 = tested on: RPMI-8226
DU-145 = tested on: DU-145
NCI-H460 = tested on: NCI-H460
IGROV-1 = tested on: IGROV-1
CAKI-1 = tested on: CAKI-1
Hs-578T = tested on: Hs-578T
786-0 = tested on: 786-0
A549 = tested on: A549
LOX IMVI = tested on: LOX IMVI
MDA-MB-231 = tested on: MDA-MB-231
SK-MEL-2 = tested on: SK-MEL-2
MOLT-4 = tested on: MOLT-4
MCF7 = tested on: MCF7
EKVX = tested on: EKVX
TK-10 = tested on: TK-10
K562 = tested on: K562
SK-MEL-5 = tested on: SK-MEL-5
SF-539 = tested on: SF-539
SF-268 = tested on: SF-268
HCC 2998 = tested on: HCC 2998
OVCAR-5 = tested on: OVCAR-5
MDA-MB-435 = tested on: MDA-MB-435
HCT-116 = tested on: HCT-116
SK-MEL-28 = tested on: SK-MEL-28
HL-60 = tested on: HL-60
U-251 = tested on: U-251
SR = tested on: SR
SK-OV-3 = tested on: SK-OV-3
T47D = tested on: T47D
HOP-92 = tested on: HOP-92
HT-29 = tested on: HT-29
OVCAR-8 = tested on: OVCAR-8
HCT-15 = tested on: HCT-15
SF-295 = tested on: SF-295
ACHN = tested on: ACHN
SN12C = tested on: SN12C
MDA-N = tested on: MDA-N
KM12 = tested on: KM12
Malme-3M = tested on: Malme-3M
BT-549 = tested on: BT-549
OVCAR-4 = tested on: OVCAR-4
COLO 205 = tested on: COLO 205
SNB-19 = tested on: SNB-19
UO-31 = tested on: UO-31
NCI/ADR-RES = tested on: NCI/ADR-RES
PC-3 = tested on: PC-3
NCI-H522 = tested on: NCI-H522
RXF 393 = tested on: RXF 393
OVCAR-3 = tested on: OVCAR-3
NCI-H226 = tested on: NCI-H226
SW-620 = tested on: SW-620
UACC-257 = tested on: UACC-257
HOP-62 = tested on: HOP-62
SNB-75 = tested on: SNB-75

Measured: GI50

Nc1nc(Cl)cc(NCC2(CO)CCC2)n1
> 100 µM: HCT-15
inactive: NCI-H23 > 100 µM | UACC-62 99.3 µM | CCRF-CEM > 100 µM | RPMI-8226 > 100 µM | DU-145 > 100 µM | NCI-H460 > 100 µM | IGROV-1 > 100 µM | CAKI-1 > 100 µM | Hs-578T > 100 µM | 786-0 > 100 µM | A549 > 100 µM | LOX IMVI > 100 µM | MDA-MB-231 > 100 µM | SK-MEL-2 > 100 µM | MOLT-4 > 100 µM | MCF7 > 100 µM | EKVX 75.2 µM | TK-10 > 100 µM | K562 > 100 µM | SK-MEL-5 > 100 µM | SF-539 > 100 µM | SF-268 > 100 µM | HCC 2998 > 100 µM | OVCAR-5 > 100 µM | MDA-MB-435 > 100 µM | HCT-116 > 100 µM | SK-MEL-28 > 100 µM | HL-60 > 100 µM | U-251 > 100 µM | SR > 100 µM | SK-OV-3 > 100 µM | T47D 29.7 µM | HOP-92 > 100 µM | HT-29 > 100 µM | OVCAR-8 > 100 µM | SF-295 > 100 µM | ACHN > 100 µM | SN12C > 100 µM | MDA-N > 100 µM | KM12 > 100 µM | Malme-3M > 100 µM | BT-549 > 100 µM | OVCAR-4 > 100 µM | COLO 205 > 100 µM | SNB-19 > 100 µM | UO-31 > 100 µM | NCI/ADR-RES > 100 µM | PC-3 > 100 µM | NCI-H522 > 100 µM | RXF 393 > 100 µM | OVCAR-3 > 100 µM | NCI-H226 > 100 µM | SW-620 > 100 µM | UACC-257 > 10 µM | HOP-62 > 100 µM | SNB-75 > 100 µM
